Test results from patent US12551578B2, “Compound or salt thereof” (SHIZUOKA PREFECTURAL UNIVERSITY CORPORATION, priority 2019, dated 2026).

Legend:
bovine thymus DNA [1] = experiment: DNA intercalation analysis by fluorescence intensity on mixing with DNA; assay type: binding; details: for intercalation into DNA judged from fluorescence intensity: FIG. 4 and Table 1; for Fluorescence intensity ratio (DNA20/DNA0): compound 10 μg/mL in 0.1 M Tris-HCl pH 7.5, DNA 20 μg/mL versus 0 μg/mL
Experimental: Since the fluorescence intensity was improved due to intercalation of the compound between base pairs of DNA, the fluorescence intensity was measured by mixing DNA and the compound. First, the compounds shown in Table 1 were dissolved in a 0.1 M Tris-HCl buffer solution (pH 7.5) at 10 μg/mL, and bovine thymus DNA was added thereto at 0 μg/mL, 5 μg/mL, 10 μg/mL or 20 μg/mL to prepare measurement samples. Then, the fluorescence intensity of each measurement sample was measured (excitation wavelength 355 to 536 nm, fluorescence wavelength of 420 to 605 nm). In Table 1, the fluorescence intensity ratio is a ratio (DNA20/DNA0) of the fluorescence intensity (DNA20) when the DNA concentration was 20 μg/mL and the fluorescence intensity (DNA0) when the DNA concentration was 0 μg/mL.

bovine thymus DNA [2] = experiment: DNA intercalation analysis by shift of absorption wavelength (bathochromic effect); assay type: binding; details: for Absorption wavelength difference: DNA 30 μg/mL versus 0 μg/mL; for intercalation into DNA judged from absorption wavelength shift: Table 2; for DNA0: Absorption wavelength when DNA concentration was 0 μg/mL / DNA30: Absorption wavelength when DNA concentration was 30 μg/mL: compound 10 μg/mL in 0.1 M Tris-HCl, peak top wavelength
Experimental: In addition, since the absorption spectrum shifted to the long wavelength side due to intercalation of the compound between base pairs of DNA (bathochromic effect), the shift of the absorption wavelength was measured by mixing DNA and the compound. Specifically, the compounds shown in Table 2 were dissolved in a 0.1 M Tris-HCl buffer solution at 10 μg/mL, and bovine thymus DNA was added thereto at 0 μg/mL or 30 μg/mL to prepare measurement samples. Then, the absorption spectrum of each measurement sample was measured, and the absorption wavelength (peak top wavelength) was determined.

[3] = Quantum yield and molar absorption coefficient (Table 1); assay type: physicochemical
[4] = tested on: reactive oxygen species in the brain (right striatum); experiment: PET measurement of probe accumulation in SNP model rats; assay type: in vivo, rat; details: for ratio of radioactivity accumulated amount (SUV) between right striatum (SNP) and left striatum (control): 20 MBq i.v. bolus, 30-45 minutes after administration, FIGS. 2(E) and 2(F)
Experimental: Accumulation of [^18F]FHM, [^18F]FPHM and [^11C]HM was analyzed using rats in which reactive oxygen species were produced in the brain (right striatum) to which sodium nitroprusside (SNP) has been administered.
While rats were anesthetized with 1.5-2.0% isoflurane (dilution gas:oxygen), 4 μL of a 20 nmol/μL SNP solution (saline) was injected into the right striatum of the rat at a rate of 0.8 μL/min using a Hamilton syringe (26 gauge). 4 μL of a saline was injected into the left striatum in the same method. PET measurement was performed on SNP-administered rats (SNP model rats) 60 minutes after SNP administration.
After transmission measurement was performed for 15 minutes for absorption correction, a bolus of 20 MBq [^18F]FHM, [^18F]FPHM or [^11C]HM was administered from the caudal vein of the rat, and emission measurement was performed for 90 minutes. After PET measurement was completed, the PET accumulation images of the brain 0-15 minutes, 15-30 minutes, 30-45 minutes, 45-60 minutes, 60-75 minutes, and 75-90 minutes after [^18F]FHM, [^18F]FPHM or [^11C]HM was administered were superimposed on the brain CT images. Regions of interest were set on the PET images of the right striatum and the left striatum identified from the X-CT images, and the value normalized according to the body weight of each individual subject and the administered radioactivity amount was used as the amount of [^18F]FHM, […] or […] accumulated at each site (radioactivity accumulated amount (SUV)) (each group, 5 rats).
In addition, as a control, PET measurement was performed on rats in which only a saline was administered to both the right striatum and the left striatum (control rat) in the same method as above.

[5] = tested on: reactive oxygen species in the brain (right striatum); experiment: Brain fluorescence imaging in SNP model rats; assay type: in vivo, rat; details: 5 mg/kg i.v. bolus, brain extracted 1 hour after administration, compared to DHE, FIG. 5
Experimental: 4 μL of a 20 nmol/μL SNP solution (phosphate buffered saline (PBS) solution) was injected into the right striatum of the rat at a rate of 0.8 μL/min using a Hamilton syringe (26 gauge). 4 μL of PBS was injected into the left striatum in the same method. A bolus of 5 mg/kg DHE or isopropyl reduced component was administered from the caudal vein of the rat 60 minutes after SNP administration for SNP-administered rats (SNP model rats). The brain was extracted 1 hour after administration and a 20 μm-thick frozen section was prepared. Brain fluorescence images were obtained by a scanner type image analysis device (FLA700: excitation wavelength of 532 nm, filter 580 nm).

DNA0: Absorption wavelength when DNA concentration was 0 μg/mL (bovine thymus DNA [2]) [nm] | ε · ϕ (molar absorption coefficient x quantum yield) [3] | ϕ: quantum yield [3] | Structure (SMILES) | intercalation into DNA judged from fluorescence intensity (bovine thymus DNA [1]) | Fluorescence intensity ratio (DNA20/DNA0) (bovine thymus DNA [1]) | Absorption wavelength difference (bovine thymus DNA [2]) [nm] | intercalation into DNA judged from absorption wavelength shift (bovine thymus DNA [2]) | DNA30: Absorption wavelength when DNA concentration was 30 μg/mL (bovine thymus DNA [2]) [nm] | ratio of radioactivity accumulated amount (SUV) between right striatum (SNP) and left striatum (control) [4] | radioactivity accumulated amount in the right striatum, comparison of probes ([4]; FIGS. 2(A) and 2(B)) | accumulation in the right striatum to which SNP has been administered (brain fluorescence images) [5]
557 | 47.04 | 3.62 10^−3 | CN1c2cc(NC3CCC3)ccc2-c2ccc(NC3CCC3)cc2C1c1ccccc1 (stereo not drawn) [Cyclobutyl form] | almost no intercalation into DNA occurred | 1.62 | 18 | almost no intercalation into DNA occurred | 575 | – | – | –
559 | 118.8 | 8.48 10^−3 | CC(C)N(c1ccc2c(c1)C(c1ccccc1)N(C)c1cc(N(C(C)C)C(C)C)ccc1-2)C(C)C (stereo not drawn) [Di-isopropyl form] | almost no intercalation into DNA occurred | 0.759 | 4 | almost no intercalation into DNA occurred | 563 | – | – | –
517 | 568.8 | 40.6 10^−3 | CC(C)Nc1ccc2c(c1)C(c1ccccc1)N(C)c1cc(NC(C)C)ccc1-2 (stereo not drawn) [Isopropyl form] | almost no intercalation into DNA occurred | 0.996 | 8 | almost no intercalation into DNA occurred | 525 | – | – | –
– | – | – | [11CH3]N1c2cc(N)ccc2-c2ccc(N)cc2C1c1ccccc1 (stereo not drawn) [[^11C]HM, reference compound] | – | – | – | – | – | about 3 times | – | –
– | – | – | CN1c2cc(N)ccc2-c2ccc(N)cc2C1c1ccc([18F])cc1 (stereo not drawn) [[^18F]FHM] | – | – | – | – | – | about 5 times | larger in [^18F]FHM than in [^11C]HM | –
– | – | – | CC(C)Nc1ccc2c(c1)C(c1ccc(F)cc1)N(C)c1cc(NC(C)C)ccc1-2 (stereo not drawn) [isopropyl reduced component] | – | – | – | – | – | – | – | a large amount of accumulation in the right striatum

Structure (SMILES) | DNA0: Absorption wavelength when DNA concentration was 0 μg/mL (bovine thymus DNA [2]) [nm] | ε · ϕ (molar absorption coefficient x quantum yield) [3] | ϕ: quantum yield [3] | intercalation into DNA judged from fluorescence intensity (bovine thymus DNA [1]) | Fluorescence intensity ratio (DNA20/DNA0) (bovine thymus DNA [1]) | Absorption wavelength difference (bovine thymus DNA [2]) [nm] | intercalation into DNA judged from absorption wavelength shift (bovine thymus DNA [2]) | DNA30: Absorption wavelength when DNA concentration was 30 μg/mL (bovine thymus DNA [2]) [nm] | ratio of radioactivity accumulated amount (SUV) between right striatum (SNP) and left striatum (control) [4] | radioactivity accumulated amount in the right striatum, comparison of probes ([4]; FIGS. 2(A) and 2(B)) | accumulation in the right striatum to which SNP has been administered (brain fluorescence images) [5]
C[n+]1c(-c2ccccc2)c2cc(N)ccc2c2ccc(N)cc21 [Methidium, reference compound] | 481 | 97.34 | 2.68 10^−3 | intercalation into DNA occurred | 3.03 | 40 | intercalation into DNA occurred | 521 | – | – | –
